In patent US10375956B2, “Herbicidally active 2-(substituted-phenyl)-cyclopentane-1,3-dione compounds and derivatives thereof” (Syngenta Limited, priority 2013, dated 2019):

Assays:
Format in all cases: in vivo
Avena fatua (AVEFA) = experiment: Test 1 glasshouse assay, post-emergence herbicidal activity; conditions: 312 h, post-emergence (Example 1B Table 2), after 13 days, read-out: Percentage phytotoxicity AVEFA
Procedure: (§1) Seeds of a variety of test species are sown in standard soil in pots. After cultivation for one day (pre-emergence) or after 8 days cultivation (post-emergence) under controlled conditions in a glasshouse (at 24/16° C., day/night; 14 hours light; 65% humidity), the plants are sprayed with an aqueous spray solution derived from the formulation of the “technical” (i.e. unformulated) active ingredient in acetone/water (50:50) solution containing 0.5% Tween 20 (polyoxyethylene sorbitan monolaurate, CAS Registry Number 9005-64-5). The test plants are then grown on under controlled conditions in a glasshouse (at 24/16° C., day/night; 14 hours light; 65% humidity) and watered twice daily. After 13 days for pre- or post-emergence, the test is evaluated visually, and an assessed percentage phytotoxicity score is given for each herbicidal application on each plant species (where 100%=total damage to plant; 0%=no damage to plant).
(§2) Lolium perenne (LOLPE), Alopecurus myosuroides (ALOMY), Echinochloa crus-galli (ECHCG), and Avena fatua (AVEFA); these are all grassy monocotyledonous weeds. Cool climate crop plant: Triticum aestivum (TRZAW, winter wheat).

Lolium perenne (LOLPE) = experiment: as above; conditions: 312 h, post-emergence (Example 1B Table 2), after 13 days, read-out: Percentage phytotoxicity LOLPE
Procedure: as §1, §2

[1] = system: Triticum aestivum (TRZAW, winter wheat); experiment: as above; conditions: 312 h, post-emergence (Example 1B Table 2), after 13 days, crop plant, read-out: Percentage phytotoxicity TRZAW
Procedure: as §1, §2

Eleusine indica (ELEIN) = experiment: Biological Example 3 glasshouse assay, post-emergence, various adjuvant systems; conditions: 8 g/ha, 15 DAA, adjuvant 0.5% v/v TEHP + 1.0% v/v AMS + 12.5% v/v IPA
Procedure: (§3) Post-emergence foliar spray application, 200 L/ha, usually one or two replicates for the weeds (depending on application rate), and two replicates for soybean.
(§4) Standard warm conditions (tropical), in glasshouse. Specifically, the glasshouse bay conditions are 24° C./18° C. day/night; 16/8 hours light/dark; 65% humidity.
(§5) The herbicidal application takes place at the following growth stages for plants which include inter alia one or more of the following plants (usually the herbicidal application takes place on at least the following plants: DIGSA, ELEIN, SETFA, ZEAMX, GLXMA Nikko, and GLXMA TMG133, and often also either BRADC or BRAPP):
Eleusine indica (ELEIN)—growth stage 12 or 13
(§6) Each test compound is applied with one of the following adjuvant systems (all percentages are final concentrations in the aqueous spray mixture):
(§7) Adjuvant system 2: 0.5% v/v Hexamoll™ DINCH**, 1.0% v/v AMS (ammonium sulphate) and 12.5% v/v IPA (isopropyl alcohol).
(§8) Adjuvant system 3: 0.5% v/v tris-(2-ethylhexyl)phosphate (“TEHP”), 1.0% v/v AMS (ammonium sulphate) and 12.5% v/v IPA (isopropyl alcohol).
(§9) Seeds of the weed (including volunteer) plants, typically including inter alia Digitaria sanguinalis (DIGSA), Eleusine indica (ELEIN), Setaria faberi (SETFA), Zea mays (ZEAMX, corn), and sometimes also [either Brachiaria decumbens (BRADC) or Brachiaria platyphylla (BRAPP)], are sown in seed trays (troughs) containing clay loam soil (pH 7.0, 2.2% organic matter, “Trough Mix A”); and soybean seed is sown in pots containing the same soil with 3 soybean seedlings per pot. The plants are sprayed with the test herbicide when they reach the growth stages mentioned above.
(§10) The test herbicidal solutions are prepared by mixing the appropriate aliquots of the test substance(s) and one of the adjuvant systems indicated above *** in deionised water to give the desired treatment concentration.
(§11) The herbicidal application is made as a foliar spray, using a tracksprayer. Following the herbicidal application, the plants are watered twice per day for the duration of the test.
(§12) A visual assessment of the % herbicidal damage is made 7 and 14 Days After herbicide Application (DAA) (or, in a minority of cases, 7 and 15 DAA), and the results are recorded as % visual herbicidal damage where 0%=no damage to plants and 100%=plant totally killed.
(§13) Compounds A2 and A7 were tested using the 0.5% v/v Hexamoll™ DINCH™+1.0% v/v AMS+12.5% v/v IPA adjuvant system. Compounds A11, A12, A14, A20 and A21 were tested using the 0.5% v/v tris-(2-ethylhexyl)phosphate (“TEHP”)+1.0% v/v AMS+12.5% v/v IPA adjuvant system.
(§14) The percentages of herbicidal damage/plant control, at 14 Days After herbicide Application (DAA) (or, in some cases, at 15 DAA), for the Compounds tested and for some of the plants tested, were in the following percentage ranges. For the tested compounds, the phytotoxicity results shown herein are generally the average of 2 or 3 repetitions (for the grassy weeds including corn) or the average of 2 repetitions (for soybean for most of the tested compounds). However, for Compound A2 on soybean there was 1 repetion only.

[2] = system: Glycine max (GLXMA, soybean) cultivar TMG133 (Roundup Ready glyphosate-tolerant); experiment: as above; conditions: 120 g/ha, 15 DAA, adjuvant 0.5% v/v TEHP + 1.0% v/v AMS + 12.5% v/v IPA, crop
Procedure: as §3, §4, §5
Glycine max (GLXMA, soybean) cultivar “TMG133”—which is Roundup Ready™ glyphosate-tolerant soybean cultivar TMG133 (typically available from Monsanto in Brazil)—growth stage: 1st trifoliate.
as §6, §7, §8, §9, §10, §11, §12, §13, §14
Glycine max (GLXMA, soybean) cultivar “TMG133” is Roundup Ready™ glyphosate-tolerant soybean cultivar TMG133, and is typically available from Monsanto in Brazil.

Setaria faberi (SETFA) = experiment: as above; conditions: 8 g/ha, 15 DAA, adjuvant 0.5% v/v TEHP + 1.0% v/v AMS + 12.5% v/v IPA
Procedure: as §3, §4, §5
Setaria faberi (SETFA)—growth stage 12 or 13
as §6, §7, §8, §9, §10, §11, §12, §13, §14

[3] = system: Glycine max (GLXMA, soybean) cultivar Nikko; experiment: as above; conditions: 120 g/ha, 15 DAA, adjuvant 0.5% v/v TEHP + 1.0% v/v AMS + 12.5% v/v IPA, crop
Procedure: as §3, §4, §5
Glycine max (GLXMA, soybean) cultivar “Nikko”—growth stage: 1st trifoliate
as §6, §7, §8, §9, §10, §11, §12, §13, §14

[4] = system: Digitaria sanguinalis (DIGSA); experiment: as above; conditions: 8 g/ha, 15 DAA, adjuvant 0.5% v/v TEHP + 1.0% v/v AMS + 12.5% v/v IPA
Procedure: as §3, §4, §5
Digitaria sanguinalis (DIGSA)—growth stage 12 or 13
as §6, §7, §8, §9, §10, §11, §12, §13, §14

[5] = system: Zea mays (ZEAMX, maize/corn) cultivar Garland; experiment: as above; conditions: 8 g/ha, 15 DAA, adjuvant 0.5% v/v TEHP + 1.0% v/v AMS + 12.5% v/v IPA
Procedure: as §3, §4, §5
Zea mays (ZEAMX, maize/corn, e.g. can occur as volunteer corn) cultivar “Garland”—growth stage 12 or 13
as §6, §7, §8, §9, §10, §11, §12, §13, §14
Zea mays (ZEAMX, maize, corn) is often present as a “volunteer” weed (“volunteer” corn) in fields where it was planted as a crop in preceding growing season(s) and where the present field crop is not corn.

SMILES	pest or weed control at 62.5 g/ha (Avena fatua (AVEFA)) [%]	pest or weed control at 250 g/ha (Avena fatua (AVEFA)) [%]	pest or weed control at 62.5 g/ha (Lolium perenne (LOLPE)) [%]	pest or weed control at 250 g/ha (Lolium perenne (LOLPE)) [%]	plant injury at 62.5 g/ha [1] [%]	plant injury at 250 g/ha [1] [%]	percentage control of Eleusine indica (Eleusine indica (ELEIN)) [%]	percentage phytotoxicity on Glycine max cultivar TMG133 [2] [%]	percentage control of Setaria faberi (Setaria faberi (SETFA)) [%]	percentage phytotoxicity on Glycine max cultivar Nikko [3] [%]	percentage control of Digitaria sanguinalis [4] [%]	percentage control of Zea mays [5] [%]
C#CCC1CC(=O)C(c2c(CC)cc(C)cc2CC)C1=O (stereo not drawn) [Compound A25, 2-(2,6-diethyl-4-methyl-phenyl)-4-(prop-2-ynyl)-cyclopentane-1,3-dione]	100	100	100	100	30	60						
C#CCC1CC(=O)C(c2c(F)cc(-c3ccc(Cl)cc3)cc2OC)C1=O (stereo not drawn) [Compound A14]		100		80		70	20	5	95	5	85	90
C#CCC1CC(=O)C(c2c(C)cc(-c3ncc(Cl)cc3F)cc2C)C1=O (stereo not drawn) [Compound A3]	90	100	100	100	90	90						
C#CCC1CC(=O)C(c2c(F)cc(-c3ccc(Cl)cn3)cc2Cl)C1=O (stereo not drawn) [Compound A8]	90	100	70	100	80	80						
C#CCC1CC(=O)C(c2c(F)cc(-c3ccc(Cl)cc3)cc2Cl)C1=O (stereo not drawn) [Compound A6, 2-[2-chloro-4-(4-chlorophenyl)-6-fluorophenyl]-4-prop-2-ynylcyclopentane-1,3-dione]		90		80		80						
C#CCC1C(=O)C(c2c(C)cc(C)cc2C)C(=O)C1CC#C (stereo not drawn) [Compound A42]		80		100		20						
C#CCC1CC(=O)C(c2c(C)cc(C)cc2C)C1=O (stereo not drawn) [Compound A23]	90	90	90	100	50	70						
